Data taken from ChEMBL document CHEMBL1201862, “PubChem BioAssay data set” (2004).
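In this assay, cells in 96-well plates receive the compound at five concentrations for 48 hours. Endpoints are linearly interpolated between the surrounding concentrations. The concentration for 50% growth inhibition is given as GI50.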 The source made the active and inactive calls. Rule as the data show it: active = GI50 up to about 1.1 µM and inactive = higher.

Tests used:
Assay in all cases: NCI anticancer screen, dose series, 48 h
786-0 = test system: 786-0
A498 = test system: A498
A549 = test system: A549
ACHN = test system: ACHN
CAKI-1 = test system: CAKI-1
CCRF-CEM = test system: CCRF-CEM
COLO 205 = test system: COLO 205
DLD-1 = test system: DLD-1
DMS-114 = test system: DMS-114
DMS-273 = test system: DMS-273
EKVX = test system: EKVX
HCC 2998 = test system: HCC 2998
HCT-116 = test system: HCT-116
HCT-15 = test system: HCT-15
HL-60 = test system: HL-60
HOP-18 = test system: HOP-18
HOP-62 = test system: HOP-62
HT-29 = test system: HT-29
IGROV-1 = test system: IGROV-1
K562 = test system: K562
KM-20L2 = test system: KM-20L2
KM12 = test system: KM12
LOX IMVI = test system: LOX IMVI
LXFL 529 = test system: LXFL 529
M14 = test system: M14
M19-MEL = test system: M19-MEL
MOLT-4 = test system: MOLT-4
Malme-3M = test system: Malme-3M
NCI-H226 = test system: NCI-H226
NCI-H460 = test system: NCI-H460
NCI-H522 = test system: NCI-H522
OVCAR-3 = test system: OVCAR-3
OVCAR-4 = test system: OVCAR-4
OVCAR-5 = test system: OVCAR-5
OVCAR-8 = test system: OVCAR-8
RPMI-8226 = test system: RPMI-8226
RXF 393 = test system: RXF 393
RXF 631 = test system: RXF 631
SF-268 = test system: SF-268
SF-295 = test system: SF-295
SF-539 = test system: SF-539
SK-MEL-28 = test system: SK-MEL-28
SK-MEL-2 = test system: SK-MEL-2
SK-MEL-5 = test system: SK-MEL-5
SK-OV-3 = test system: SK-OV-3
SN12C = test system: SN12C
SNB-19 = test system: SNB-19
SNB-75 = test system: SNB-75
SNB-78 = test system: SNB-78
SR = test system: SR
TK-10 = test system: TK-10
U-251 = test system: U-251
UACC-257 = test system: UACC-257
UACC-62 = test system: UACC-62
UO-31 = test system: UO-31
XF498 = test system: XF498
SW-620 = test system: SW-620

Question: What does the source list for `CCOC(=O)CC(C)C1(C=O)CCCCC1=O` (configuration not stated)?
Answer: GI50 (786-0): 31 µM (inactive); GI50 (A498): > 100 µM (inactive); GI50 (A549): > 100 µM (inactive); GI50 (ACHN): > 100 µM (inactive); GI50 (CAKI-1): > 100 µM (inactive); GI50 (CCRF-CEM): 41.8 µM (inactive); GI50 (COLO 205): 29.3 µM (inactive); GI50 (DLD-1): 56 µM (inactive); GI50 (DMS-114): 23 µM (inactive); GI50 (DMS-273): 21.1 µM (inactive); GI50 (EKVX): > 100 µM (inactive); GI50 (HCC 2998): > 100 µM (inactive); GI50 (HCT-116): > 100 µM (inactive); GI50 (HCT-15): 38 µM; GI50 (HL-60): > 100 µM (inactive); GI50 (HOP-18): > 100 µM (inactive); GI50 (HOP-62): > 100 µM (inactive); GI50 (HT-29): > 10 µM (inactive); GI50 (IGROV-1): > 100 µM (inactive); GI50 (K562): > 100 µM (inactive); GI50 (KM-20L2): > 100 µM (inactive); GI50 (KM12): > 100 µM (inactive); GI50 (LOX IMVI): 18.3 µM (inactive); GI50 (LXFL 529): > 100 µM (inactive); GI50 (M14): 29.6 µM (inactive); GI50 (M19-MEL): > 100 µM (inactive); GI50 (MOLT-4): > 100 µM (inactive); GI50 (Malme-3M): > 100 µM (inactive); GI50 (NCI-H226): > 100 µM (inactive); GI50 (NCI-H460): 60 µM (inactive); GI50 (NCI-H522): 90.4 µM (inactive); GI50 (OVCAR-3): > 100 µM (inactive); GI50 (OVCAR-4): 79.8 µM (inactive); GI50 (OVCAR-5): > 100 µM (inactive); GI50 (OVCAR-8): > 100 µM (inactive); GI50 (RPMI-8226): 20.6 µM (inactive); GI50 (RXF 393): > 100 µM (inactive); GI50 (RXF 631): > 100 µM (inactive); GI50 (SF-268): > 100 µM (inactive); GI50 (SF-295): > 100 µM (inactive); GI50 (SF-539): > 100 µM (inactive); GI50 (SK-MEL-28): > 100 µM (inactive); GI50 (SK-MEL-2): > 100 µM (inactive); GI50 (SK-MEL-5): > 100 µM (inactive); GI50 (SK-OV-3): > 100 µM (inactive); GI50 (SN12C): > 100 µM (inactive); GI50 (SNB-19): > 100 µM (inactive); GI50 (SNB-75): > 100 µM (inactive); GI50 (SNB-78): > 100 µM (inactive); GI50 (SR): 19.9 µM (inactive); GI50 (TK-10): > 100 µM (inactive); GI50 (U-251): > 100 µM (inactive); GI50 (UACC-257): > 100 µM (inactive); GI50 (UACC-62): > 100 µM (inactive); GI50 (UO-31): > 100 µM (inactive); GI50 (XF498): > 100 µM (inactive)

Question: How did the GI50 (A498) turn out when `N#CN=C(NCCO)NCCO` was run?
Answer: 92.7 µM (inactive)

Question: What about the GI50 (A549) of the same molecule?
Answer: > 100 µM (inactive)

Question: And the GI50 (ACHN)?
Answer: > 100 µM (inactive)

Question: And the GI50 (CAKI-1)?
Answer: > 100 µM (inactive)

Question: What about the GI50 (CCRF-CEM) of the same molecule?
Answer: > 100 µM (inactive)

Question: What about the GI50 (COLO 205) of the same molecule?
Answer: > 100 µM (inactive)

Question: And the GI50 (DLD-1)?
Answer: > 100 µM (inactive)

Question: And the GI50 (DMS-114)?
Answer: > 100 µM (inactive)

Question: What about the GI50 (EKVX) of the same molecule?
Answer: > 100 µM (inactive)

Question: What about the GI50 (HCC 2998) of the same molecule?
Answer: > 100 µM (inactive)

Question: What about the GI50 (HCT-116) of the same molecule?
Answer: > 100 µM (inactive)

Question: And the GI50 (HCT-15)?
Answer: > 100 µM

Question: What about the GI50 (HL-60) of the same molecule?
Answer: > 100 µM (inactive)

Question: And the GI50 (HOP-18)?
Answer: 45.1 µM (inactive)

Question: And the GI50 (HOP-62)?
Answer: > 100 µM (inactive)

Question: What about the GI50 (HT-29) of the same molecule?
Answer: > 100 µM (inactive)

Question: What about the GI50 (IGROV-1) of the same molecule?
Answer: > 100 µM (inactive)

Question: And the GI50 (KM-20L2)?
Answer: > 100 µM (inactive)

Question: And the GI50 (KM12)?
Answer: > 100 µM (inactive)

Question: And the GI50 (LOX IMVI)?
Answer: > 100 µM (inactive)

Question: What about the GI50 (LXFL 529) of the same molecule?
Answer: > 100 µM (inactive)

Question: And the GI50 (M14)?
Answer: > 100 µM (inactive)

Question: And the GI50 (M19-MEL)?
Answer: > 100 µM (inactive)

Question: And the GI50 (MOLT-4)?
Answer: > 100 µM (inactive)

Question: What about the GI50 (Malme-3M) of the same molecule?
Answer: > 100 µM (inactive)

Question: What about the GI50 (NCI-H226) of the same molecule?
Answer: > 100 µM (inactive)

Question: What about the GI50 (NCI-H460) of the same molecule?
Answer: > 100 µM (inactive)

Question: What about the GI50 (NCI-H522) of the same molecule?
Answer: > 100 µM (inactive)

Question: What about the GI50 (OVCAR-3) of the same molecule?
Answer: > 100 µM (inactive)

Question: What about the GI50 (OVCAR-4) of the same molecule?
Answer: > 100 µM (inactive)

Question: What about the GI50 (OVCAR-5) of the same molecule?
Answer: > 100 µM (inactive)

Question: And the GI50 (OVCAR-8)?
Answer: > 100 µM (inactive)

Question: What about the GI50 (RPMI-8226) of the same molecule?
Answer: > 100 µM (inactive)

Question: And the GI50 (RXF 631)?
Answer: > 100 µM (inactive)

Question: And the GI50 (SF-268)?
Answer: > 100 µM (inactive)

Question: And the GI50 (SF-295)?
Answer: > 100 µM (inactive)

Question: What about the GI50 (SF-539) of the same molecule?
Answer: > 100 µM (inactive)

Question: What about the GI50 (SK-MEL-28) of the same molecule?
Answer: > 100 µM (inactive)

Question: And the GI50 (SK-MEL-2)?
Answer: > 100 µM (inactive)

Question: What about the GI50 (SK-OV-3) of the same molecule?
Answer: > 100 µM (inactive)

Question: And the GI50 (SN12C)?
Answer: > 100 µM (inactive)

Question: What about the GI50 (SNB-19) of the same molecule?
Answer: > 100 µM (inactive)

Question: What about the GI50 (SNB-75) of the same molecule?
Answer: > 100 µM (inactive)

Question: What about the GI50 (SNB-78) of the same molecule?
Answer: > 100 µM (inactive)

Question: What about the GI50 (SR) of the same molecule?
Answer: > 100 µM (inactive)

Question: What about the GI50 (SW-620) of the same molecule?
Answer: > 100 µM (inactive)

Question: What about the GI50 (U-251) of the same molecule?
Answer: > 100 µM (inactive)

Question: And the GI50 (UACC-257)?
Answer: > 100 µM (inactive)

Question: And the GI50 (UACC-62)?
Answer: > 100 µM (inactive)

Question: What about the GI50 (UO-31) of the same molecule?
Answer: > 100 µM (inactive)

Question: And the GI50 (XF498)?
Answer: > 100 µM (inactive)
